{"source": "paper PMC5377825", "about": "“Catalytic Determinants of Alkene Production by the Cytochrome P450 Peroxygenase OleTJE” (The Journal of Biological Chemistry, 2017)", "assay_in_all_cases": "UV-visible heme spectral titration", "type_in_all_cases": "binding", "key": {"OleTJE (CYP152L1) [1]": {"target": "T1, OleTJE (CYP152L1) (Jeotgalicoccus sp. ATCC 8456, UniProt E9NSU2)", "T1 construct": "gene JEM45_03820; full length, codon-optimized gene in modified pET15b, N-terminal polyhistidine tag with TEV site; tag kept for spectroscopy, cleaved for crystallography; expressed in E. coli C41 (DE3)", "T1 sequence (E9NSU2 1-422)": "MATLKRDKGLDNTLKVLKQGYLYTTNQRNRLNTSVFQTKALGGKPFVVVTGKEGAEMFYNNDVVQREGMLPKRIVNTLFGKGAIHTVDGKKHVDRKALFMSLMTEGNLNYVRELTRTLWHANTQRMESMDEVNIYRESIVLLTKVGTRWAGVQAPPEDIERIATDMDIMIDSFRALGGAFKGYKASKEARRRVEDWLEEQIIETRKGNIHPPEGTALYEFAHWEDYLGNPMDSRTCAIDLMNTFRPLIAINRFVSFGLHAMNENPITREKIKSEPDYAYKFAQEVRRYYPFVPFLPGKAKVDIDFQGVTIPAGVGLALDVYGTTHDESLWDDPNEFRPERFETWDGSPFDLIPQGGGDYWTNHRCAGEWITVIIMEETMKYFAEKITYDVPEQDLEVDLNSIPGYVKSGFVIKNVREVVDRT", "source_text": "(§1) UV-visible heme spectral titration on OleTJE (CYP152L1)"}, "OleTJE (CYP152L1) [2]": {"target": "T2, OleTJE (CYP152L1) (Jeotgalicoccus sp. ATCC 8456, UniProt E9NSU2, F79A)", "T2 construct": "gene JEM45_03820; full length, codon-optimized gene in modified pET15b, N-terminal polyhistidine tag with TEV site; tag kept for spectroscopy, cleaved for crystallography; expressed in E. coli C41 (DE3)", "T2 sequence (E9NSU2 1-422 F79A)": "T1 sequence (E9NSU2 1-422) with F79A", "source_text": "as §1"}, "OleTJE (CYP152L1) [3]": {"target": "T3, OleTJE (CYP152L1) (Jeotgalicoccus sp. ATCC 8456, UniProt E9NSU2, F79W)", "T3 construct": "gene JEM45_03820; full length, codon-optimized gene in modified pET15b, N-terminal polyhistidine tag with TEV site; tag kept for spectroscopy, cleaved for crystallography; expressed in E. coli C41 (DE3)", "T3 sequence (E9NSU2 1-422 F79W)": "T1 sequence (E9NSU2 1-422) with F79W", "source_text": "as §1"}, "OleTJE (CYP152L1) [4]": {"target": "T4, OleTJE (CYP152L1) (Jeotgalicoccus sp. ATCC 8456, UniProt E9NSU2, H85Q)", "T4 construct": "gene JEM45_03820; full length, codon-optimized gene in modified pET15b, N-terminal polyhistidine tag with TEV site; tag kept for spectroscopy, cleaved for crystallography; expressed in E. coli C41 (DE3)", "T4 sequence (E9NSU2 1-422 H85Q)": "T1 sequence (E9NSU2 1-422) with H85Q", "source_text": "as §1"}, "OleTJE (CYP152L1) [5]": {"target": "T5, OleTJE (CYP152L1) (Jeotgalicoccus sp. ATCC 8456, UniProt E9NSU2, F79Y)", "T5 construct": "gene JEM45_03820; full length, codon-optimized gene in modified pET15b, N-terminal polyhistidine tag with TEV site; tag kept for spectroscopy, cleaved for crystallography; expressed in E. coli C41 (DE3)", "T5 sequence (E9NSU2 1-422 F79Y)": "T1 sequence (E9NSU2 1-422) with F79Y", "source_text": "as §1"}, "OleTJE (CYP152L1) [6]": {"target": "T6, OleTJE (CYP152L1) (Jeotgalicoccus sp. ATCC 8456, UniProt E9NSU2, R245E)", "T6 construct": "gene JEM45_03820; full length, codon-optimized gene in modified pET15b, N-terminal polyhistidine tag with TEV site; tag kept for spectroscopy, cleaved for crystallography; expressed in E. coli C41 (DE3)", "T6 sequence (E9NSU2 1-422 R245E)": "T1 sequence (E9NSU2 1-422) with R245E", "details": "read-out: Fatty acid Kd (HS) / C10:0", "source_text": "as §1"}, "[7]": {"details": "read-out: Fatty acid Kd (HS) / C16:0"}, "[8]": {"details": "read-out: Fatty acid Kd (HS) / C20:0"}, "[9]": {"details": "read-out: Fatty acid Kd (HS) / C18:0"}, "[10]": {"details": "read-out: Fatty acid Kd (HS) / C14:0"}, "[11]": {"details": "read-out: Fatty acid Kd (HS) / C10:0"}, "[12]": {"details": "read-out: Fatty acid Kd (HS) / C12:0"}}, "note": "Changes are numbered by the printed parent chain. Where two headings read alike, the source gives them in different places.", "data": [{"smiles": "CCCCCCCCCCCCCCCC(=O)O", "note": "[C16:0, hexadecanoic acid]", "values": [{"measurement": "Kd", "setting": "OleTJE (CYP152L1) [1]; [7]", "result": "1.73 ± 0.08", "unit": "µM"}, {"measurement": "Kd", "setting": "OleTJE (CYP152L1) [2]; [7]", "result": "22.6 ± 1.9", "unit": "µM"}, {"measurement": "Kd", "setting": "OleTJE (CYP152L1) [3]; [7]", "result": "12.7 ± 0.7", "unit": "µM"}, {"measurement": "Kd", "setting": "OleTJE (CYP152L1) [4]; [7]", "result": "5.36 ± 0.18", "unit": "µM"}]}, {"smiles": "CCCCCCCCCCCCCCCCCCCC(=O)O", "note": "[C20:0, eicosanoic acid]", "values": [{"measurement": "Kd", "setting": "OleTJE (CYP152L1) [1]; [8]", "result": "4.43 ± 0.19", "unit": "µM"}, {"measurement": "Kd", "setting": "OleTJE (CYP152L1) [2]; [8]", "result": "3.4 ± 0.3", "unit": "µM"}, {"measurement": "Kd", "setting": "OleTJE (CYP152L1) [3]; [8]", "result": "4.41 ± 0.27", "unit": "µM"}, {"measurement": "Kd", "setting": "OleTJE (CYP152L1) [5]; [8]", "result": "4.25 ± 0.21", "unit": "µM"}, {"measurement": "Kd", "setting": "OleTJE (CYP152L1) [4]; [8]", "result": "5.27 ± 0.05", "unit": "µM"}]}, {"smiles": "CCCCCCCCCCCCCCCCCC(=O)O", "note": "[C18:0, octadecanoic acid]", "values": [{"measurement": "Kd", "setting": "OleTJE (CYP152L1) [1]; [9]", "result": "4.09 ± 0.16", "unit": "µM"}, {"measurement": "Kd", "setting": "OleTJE (CYP152L1) [2]; [9]", "result": "8.7 ± 0.5", "unit": "µM"}, {"measurement": "Kd", "setting": "OleTJE (CYP152L1) [3]; [9]", "result": "4.52 ± 0.2", "unit": "µM"}, {"measurement": "Kd", "setting": "OleTJE (CYP152L1) [4]; [9]", "result": "5.92 ± 0.08", "unit": "µM"}]}, {"smiles": "CCCCCCCCCCCCCC(=O)O", "note": "[C14:0, tetradecanoic acid]", "values": [{"measurement": "Kd", "setting": "OleTJE (CYP152L1) [1]; [10]", "result": "1.45 ± 0.05", "unit": "µM"}, {"measurement": "Kd", "setting": "OleTJE (CYP152L1) [2]; [10]", "result": "39.1 ± 2.5", "unit": "µM"}, {"measurement": "Kd", "setting": "OleTJE (CYP152L1) [3]; [10]", "result": "24.1 ± 0.9", "unit": "µM"}, {"measurement": "Kd", "setting": "OleTJE (CYP152L1) [5]; [10]", "result": "30.7 ± 1", "unit": "µM"}, {"measurement": "Kd", "setting": "OleTJE (CYP152L1) [4]; [10]", "result": "10.5 ± 0.1", "unit": "µM"}]}, {"smiles": "CCCCCCCCCC(=O)O", "note": "[C10:0, decanoic acid]", "values": [{"measurement": "Kd", "setting": "OleTJE (CYP152L1) [1]; [11]", "result": "47.1 ± 2.1", "unit": "µM"}, {"measurement": "Kd", "setting": "OleTJE (CYP152L1) [2]; [11]", "result": "465 ± 11", "unit": "µM"}, {"measurement": "Kd", "setting": "OleTJE (CYP152L1) [6]", "result": "1.26 ± 0.16", "unit": "mM"}]}, {"smiles": "CCCCCCCCCCCC(=O)O", "note": "[C12:0, dodecanoic acid]", "values": [{"measurement": "Kd", "setting": "OleTJE (CYP152L1) [1]; [12]", "result": "11.7 ± 0.43", "unit": "µM"}, {"measurement": "Kd", "setting": "OleTJE (CYP152L1) [2]; [12]", "result": "55 ± 4.8", "unit": "µM"}, {"measurement": "Kd", "setting": "OleTJE (CYP152L1) [3]; [12]", "result": "106 ± 9", "unit": "µM"}, {"measurement": "Kd", "setting": "OleTJE (CYP152L1) [5]; [12]", "result": "196 ± 5", "unit": "µM"}, {"measurement": "Kd", "setting": "OleTJE (CYP152L1) [4]; [12]", "result": "37.3 ± 2.5", "unit": "µM"}]}]}
